Results as given in BindingDB's records for doi:10.1016/j.bmcl.2010.04.113 (Merck Serono, 2010).

Assay: Antagonist activity at human CXCR3 expressed in mouse L1.2 cells assessed as inhibition of IP10-induced chemotaxis after 4 hrs

| Structure (SMILES) | IC50 |
| --- | --- |
| O=C(O)c1ccc(CN(Cc2ccccc2)S(=O)(=O)c2ccc(Cl)cc2)cc1 [4-((N-benzyl-4-chlorophenylsulfonamido)methyl)benzoicacid] | 2940 nM |
| O=C(NCC1CC1)c1ccc(CN(Cc2cccc(Cl)c2)S(=O)(=O)c2ccc(Cl)cc2)cc1 [4-((4-chloro-N-(3-chlorobenzyl)phenylsulfonamido)methyl)-N-(cyclopropylmethyl)benzamide] | 940 nM |
| CCOc1ccc(S(=O)(=O)N(Cc2ccccc2)Cc2ccc(C(=O)NCC3CC3)cc2)cc1 [4-((N-benzyl-4-ethoxyphenylsulfonamido)methyl)-N-(cyclopropylmethyl)benzamide] | 673 nM |
| COc1ccc(S(=O)(=O)N(Cc2ccccc2)Cc2ccc(C(=O)O)cc2)cc1 [4-((N-benzyl-4-methoxyphenylsulfonamido)methyl)benzoicacid] | 6440 nM |
| CC(C)(C)c1nc(CCN(Cc2ccc(-c3nnn[nH]3)cc2)S(=O)(=O)c2ccc(Cl)cc2)no1 [N-(4-(1H-tetrazol-5-yl)benzyl)-N-(2-(5-tert-butyl-1,2,4-oxadiazol-3-yl)ethyl)-4-chlorobenzenesulfonamide] | 254 nM |
| N#Cc1ccc(S(=O)(=O)N(Cc2ccc(C(=O)O)c(F)c2)Cc2ccccn2)cc1 [4-((4-cyano-N-(pyridin-2-ylmethyl)phenylsulfonamido)methyl)-2-fluorobenzoicacid] | 1080 nM |
| O=S(=O)(c1ccc(Cl)cc1)N(Cc1ccc(-c2nnn[nH]2)c(F)c1)Cc1ccccn1 [4-chloro-N-(3-fluoro-4-(1H-tetrazol-5-yl)benzyl)-N-(pyridin-2-ylmethyl)benzenesulfonamide] | 440 nM |
| COc1ccc(S(=O)(=O)N(Cc2ccccc2)Cc2ccc(C(=O)NCC3CC3)cc2)cc1 [4-((N-benzyl-4-methoxyphenylsulfonamido)methyl)-N-(cyclopropylmethyl)benzamide] | 697 nM |
| O=C(NCc1cccc(Cl)c1)c1ccc(CN(Cc2ccccn2)S(=O)(=O)c2ccc(Cl)cc2)cc1 [4-((4-chloro-N-(pyridin-2-ylmethyl)phenylsulfonamido)methyl)-N-(3-chlorobenzyl)benzamide] | 85 nM |
| COc1ccc(S(=O)(=O)N(Cc2ccc(C(=O)NCC3CC3)cc2)Cc2cccnc2)cc1 [N-(cyclopropylmethyl)-4-((4-methoxy-N-(pyridin-3-ylmethyl)phenylsulfonamido)methyl)benzamide] | 1150 nM |
| O=C(NCC1CC1)c1ccc(CN(Cc2ccccc2)S(=O)(=O)c2ccc(Cl)cc2)cc1 [4-((N-benzyl-4-chlorophenylsulfonamido)methyl)-N-(cyclopropylmethyl)benzamide] | 1980 nM |
| COc1ccc(S(=O)(=O)N(Cc2ccccc2)Cc2ccc(C(=O)NCc3ccccc3)cc2)cc1 [N-benzyl-4-((N-benzyl-4-methoxyphenylsulfonamido)methyl)benzamide] | 347 nM |
| CCOc1ccc(S(=O)(=O)N(Cc2ccc(-c3nnn[nH]3)cc2)Cc2ccccn2)cc1 [N-(4-(1H-tetrazol-5-yl)benzyl)-4-ethoxy-N-(pyridin-2-ylmethyl)benzenesulfonamide] | 540 nM |
| O=S(=O)(c1ccc(Cl)cc1)N(CCc1cc2ccccc2cn1)Cc1ccc(-c2nnn[nH]2)cc1 [N-(4-(1H-tetrazol-5-yl)benzyl)-4-chloro-N-(2-(isoquinolin-3-yl)ethyl)benzenesulfonamide] | 911 nM |
| O=C(NCC1CC1)c1ccc(CN(Cc2ccccc2)S(=O)(=O)c2ccc(OC(F)(F)F)cc2)cc1 [4-((N-benzyl-4-(trifluoromethoxy)phenylsulfonamido)methyl)-N-(cyclopropylmethyl)benzamide] | 5580 nM |
